Source: ChEMBL document CHEMBL1158677, “New Diterpene Lactones from the Sponge Spongia matamata” (J Nat Prod, 1998)

System: Artemia
Experiment: Toxicity in brine shrimp
Format: organism-based
Details: in vivo; call rule not given here

With `C[C@]12CC(=O)O[C@@](C)(CO)[C@@H]1CC[C@@]1(C)c3cocc3CC[C@H]21` the Activity was “Not Active”.
